# Patent publication US10112929B2, “Lactams as inhibitors of rock” (BRISTOL-MYERS SQUIBB COMPANY, priority 2015, dated 2018)
# Counter-ions that a name gives are not always drawn.
# Target: T1, ROCK2 (Homo sapiens (Human), UniProt O75116)
# Test: not given
# 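Note: rho kinase enzyme reaction halted with EDTA, phospho- and non-phospho peptide separated for read-out, kinase activity inhibition derived across a dose-response series, DMSO under 2%.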
# T1 sequence (O75116 whole entry, species assumed): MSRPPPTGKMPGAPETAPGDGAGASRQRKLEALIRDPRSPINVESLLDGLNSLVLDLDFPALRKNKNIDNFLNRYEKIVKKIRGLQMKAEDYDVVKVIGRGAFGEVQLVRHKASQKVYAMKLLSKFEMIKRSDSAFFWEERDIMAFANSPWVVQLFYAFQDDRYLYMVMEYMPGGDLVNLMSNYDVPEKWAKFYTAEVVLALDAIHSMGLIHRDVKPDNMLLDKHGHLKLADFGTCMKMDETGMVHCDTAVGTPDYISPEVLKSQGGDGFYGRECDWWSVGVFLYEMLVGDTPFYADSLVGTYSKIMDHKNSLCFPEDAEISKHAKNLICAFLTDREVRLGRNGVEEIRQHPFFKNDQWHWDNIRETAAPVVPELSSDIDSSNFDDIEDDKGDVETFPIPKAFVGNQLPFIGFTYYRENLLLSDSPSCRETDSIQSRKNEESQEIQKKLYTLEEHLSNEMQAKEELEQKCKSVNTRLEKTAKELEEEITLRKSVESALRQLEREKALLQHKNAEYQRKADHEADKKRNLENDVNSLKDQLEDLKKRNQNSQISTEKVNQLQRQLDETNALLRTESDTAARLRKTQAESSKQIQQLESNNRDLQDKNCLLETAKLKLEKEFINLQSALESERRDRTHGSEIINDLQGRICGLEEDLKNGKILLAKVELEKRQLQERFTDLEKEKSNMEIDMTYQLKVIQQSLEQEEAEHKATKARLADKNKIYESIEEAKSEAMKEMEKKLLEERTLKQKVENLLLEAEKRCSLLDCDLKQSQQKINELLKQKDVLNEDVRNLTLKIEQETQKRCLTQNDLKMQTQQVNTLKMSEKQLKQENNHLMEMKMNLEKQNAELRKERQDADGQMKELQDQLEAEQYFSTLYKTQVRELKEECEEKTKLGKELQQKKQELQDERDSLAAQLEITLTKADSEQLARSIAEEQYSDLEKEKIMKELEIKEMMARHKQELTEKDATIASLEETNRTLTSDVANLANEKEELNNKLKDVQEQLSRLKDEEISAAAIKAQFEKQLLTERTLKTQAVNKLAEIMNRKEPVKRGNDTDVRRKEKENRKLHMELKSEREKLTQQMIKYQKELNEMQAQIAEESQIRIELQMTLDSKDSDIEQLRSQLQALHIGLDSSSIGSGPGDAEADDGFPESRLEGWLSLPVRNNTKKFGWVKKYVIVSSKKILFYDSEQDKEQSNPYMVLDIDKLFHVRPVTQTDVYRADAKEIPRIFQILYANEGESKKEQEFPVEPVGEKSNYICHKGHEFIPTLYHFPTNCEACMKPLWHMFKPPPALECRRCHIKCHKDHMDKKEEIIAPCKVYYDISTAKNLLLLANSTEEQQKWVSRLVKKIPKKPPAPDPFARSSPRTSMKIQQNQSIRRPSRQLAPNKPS
row,IC50,Structure (SMILES)
1,0.1 to 2.2 µM,"COc1cc(NC2CCN(c3ccc(-c4cn[nH]c4)c(OCCN(C)C)c3)C2=O)ccc1F (racemic) [Example 347, 1-(3-(2-(dimethylamino)ethoxy)-4-(1H-pyrazol-4-yl)phenyl)-3-((4-fluoro-3-methoxyphenyl)amino)pyrrolidin-2-one]"
2,0.1 to 2.2 µM,"COc1ccc(NC2CCN(c3ccc(-c4cn[nH]c4)cc3)C2=O)cc1F (single isomer, unassigned) [Example 14, 1-(4-(1H-pyrazol-4-yl)phenyl)-3-((3-fluoro-4-methoxyphenyl)amino)pyrrolidin-2-one]"
3,0.1 to 2.2 µM,"COc1ccc(NC2CCN(c3ccc(-c4cn[nH]c4)cc3)C2=O)c(F)c1 (single isomer, unassigned) [Example 20, 1-(4-(1H-pyrazol-4-yl)phenyl)-3-((2-fluoro-4-methoxyphenyl)amino)pyrrolidin-2-one]"
4,0.1 to 2.2 µM,"COc1cc(NC2CCN(c3ccc(-c4cn[nH]c4)cc3)C2=O)cc(OC)c1 (single isomer, unassigned) [Example 22, 1-(4-(1H-pyrazol-4-yl)phenyl)-3-((3,5-dimethoxyphenyl)amino)pyrrolidin-2-one]"
5,< 0.01 µM,"COc1cc(F)cc(NC2CCN(c3ccc(-c4cn[nH]c4)cc3)C2=O)c1 (single isomer, unassigned) [Example 27, 1-(4-(1H-pyrazol-4-yl)phenyl)-3-((3-fluoro-5-methoxyphenyl)amino)pyrrolidin-2-one]"
6,< 0.01 µM,"COc1cccc(NC2CCN(c3ccc(-c4cn[nH]c4)cc3)C2=O)c1 (single isomer, unassigned) [Example 29, 1-(4-(1H-pyrazol-4-yl)phenyl)-3-((3-methoxyphenyl)amino)pyrrolidin-2-one]"
7,0.01 to 0.1 µM,"CCOc1cc(N2CCC(Nc3ccc(F)c(OC)c3)C2=O)ccc1-c1cn[nH]c1 (single isomer, unassigned) [Example 39, 1-(3-ethoxy-4-(1H-pyrazol-4-yl)phenyl)-3-((4-fluoro-3-methoxyphenyl)amino)pyrrolidin-2-one]"
8,0.1 to 2.2 µM,"CCOc1cc(N2CCC(Nc3cc(OC)ccc3F)C2=O)ccc1-c1cn[nH]c1 (single isomer, unassigned) [Example 41, 1-(3-ethoxy-4-(1H-pyrazol-4-yl)phenyl)-3-((2-fluoro-5-methoxyphenyl)amino)pyrrolidin-2-one]"
9,< 0.01 µM,"O=C1C(Nc2ccccc2)CCN1c1ccc(-c2cn[nH]c2)c(F)c1 (single isomer, unassigned) [Example 44, 1-(3-fluoro-4-(1H-pyrazol-4-yl)phenyl)-3-(phenylamino)pyrrolidin-2-one]"
10,< 0.01 µM,"COc1cccc(NC2CCN(c3ccc(-c4cn[nH]c4)c(F)c3)C2=O)c1 (single isomer, unassigned) [Example 46, 1-(3-fluoro-4-(1H-pyrazol-4-yl)phenyl)-3-((3-methoxyphenyl)amino)pyrrolidin-2-one]"
11,< 0.01 µM,"COc1cc(F)cc(NC2CCN(c3ccc(-c4cn[nH]c4)c(F)c3)C2=O)c1 (single isomer, unassigned) [Example 50, 1-(3-fluoro-4-(1 H-pyrazol-4-yl)phenyl)-3-((3-fluoro-5-methoxyphenyl)amino)pyrrolidin-2-one]"
12,0.1 to 2.2 µM,"O=C1C(Nc2ccc3c(c2)OC(F)(F)O3)CCN1c1ccc(-c2cn[nH]c2)cc1 (single isomer, unassigned) [Example 54, 1-(4-(1H-pyrazol-4-yl)phenyl)-3-((2,2-difluorobenzo[d][1,3]dioxol-5-yl)amino)pyrrolidin-2-one]"
13,< 0.01 µM,"COc1cccc(NC2CCN(c3ccc(-c4cn[nH]c4)c(OC)c3)C2=O)c1 (single isomer, unassigned) [Example 75, 1-(3-methoxy-4-(1H-pyrazol-4-yl)phenyl)-3-((3-methoxyphenyl)amino)pyrrolidin-2-one]"
14,0.01 to 0.1 µM,"COc1cccc(NC2CCN(c3ccc(-c4ccnc(N)n4)cc3)C2=O)c1 (single isomer, unassigned) [Example 79, 1-(4-(2-aminopyrimidin-4-yl)phenyl)-3-((3-methoxyphenyl)amino)pyrrolidin-2-one]"

# Target: T1, ROCK2
# Test: biochemical
row,IC50,Structure (SMILES)
1,0.01 to 0.1 µM,"COc1cccc(OC2CCN(c3ccc(-c4cn[nH]c4)cc3)C2=O)c1 (stereo not drawn) [Example 108, 1-(4-(1H-Pyrazol-4-yl)phenyl)-3-(3-methoxyphenoxy)pyrrolidin-2-one, TFA]"
2,0.1 to 2.2 µM,"Cc1cccc(OC2CCN(c3ccc(-c4cn[nH]c4)cc3)C2=O)c1 (stereo not drawn) [Example 109, 1-(4-(1H-pyrazol-4-yl)phenyl)-3-(m-tolyloxy)pyrrolidin-2-one]"
3,0.01 to 0.1 µM,"O=C1C(Oc2ccccc2Cl)CCN1c1ccc(-c2cn[nH]c2)cc1 (stereo not drawn) [Example 110, 1-(4-(1H-pyrazol-4-yl)phenyl)-3-(2-chlorophenoxy)pyrrolidin-2-one]"
4,0.01 to 0.1 µM,"COc1ccc(F)c(OC2CCN(c3ccc(-c4cn[nH]c4)cc3)C2=O)c1 (stereo not drawn) [Example 111, 1-(4-(1H-pyrazol-4-yl)phenyl)-3-(2-fluoro-5-methoxyphenoxy)pyrrolidin-2-one]"
5,0.1 to 2.2 µM,"COc1cc(F)cc(OC2CCN(c3ccc(-c4cn[nH]c4)cc3)C2=O)c1 (stereo not drawn) [Example 112, 1-(4-(1H-pyrazol-4-yl)phenyl)-3-(3-fluoro-5-methoxyphenoxy)pyrrolidin-2-one]"
6,0.01 to 0.1 µM,"Nc1cccc(OC2CCN(c3ccc(-c4cn[nH]c4)cc3)C2=O)c1 (stereo not drawn) [Example 113, 1-(4-(1H-pyrazol-4-yl)phenyl)-3-(3-aminophenoxy)pyrrolidin-2-one, TFA]"
7,0.1 to 2.2 µM,"Cc1nc2ccc(NC3CCN(c4ccc(-c5cn[nH]c5)cc4)C3=O)cc2s1 (stereo not drawn) [Example 115, 1-(4-(1H-pyrazol-4-yl)phenyl)-3-((2-methylbenzo[d]thiazol-6-yl)amino)pyrrolidin-2-one]"
8,0.01 to 0.1 µM,"N#Cc1ccnc(NC2CCN(c3ccc(-c4cn[nH]c4)cc3)C2=O)c1 (stereo not drawn) [Example 116, 2-((1-(4-(1H-Pyrazol-4-yl)phenyl)-2-oxopyrrolidin-3-yl)amino)isonicotinonitrile]"
9,< 0.01 µM,"COc1cccc(NC2CCN(c3ccc(-c4cn[nH]c4)c(OC)n3)C2=O)c1C (stereo not drawn) [Example 117, 3-((3-Methoxy-2-methylphenyl)amino)-1-(6-methoxy-5-(1H-pyrazol-4-yl)pyridin-2-yl)pyrrolidin-2-one]"
10,< 0.01 µM,"COc1cccc(NC2CCN(c3ccc(-c4ccncc4F)c(OC)n3)C2=O)c1 (stereo not drawn) [Example 118, 1-(3′-Fluoro-2-methoxy-[3,4′-bipyridin]-6-yl)-3-((3-methoxyphenyl)amino) pyrrolidin-2-one]"
11,0.01 to 0.1 µM,"COc1cccc(NC2CCN(c3ncc(-c4cn[nH]c4)c(OC)n3)C2=O)c1 (stereo not drawn) [Example 132, 1-(4-Methoxy-5-(1H-pyrazol-4-yl)pyrimidin-2-yl)-3-((3-methoxyphenyl)amino) pyrrolidin-2-one]"
12,< 0.01 µM,"COc1cccc(N[C@H]2C(=O)N(c3ccc(-c4cn[nH]c4)cc3)C[C@@H]2CO)c1 [Example 133, (3R,4S)-1-(4-(1H-Pyrazol-4-yl)phenyl)-4-(hydroxymethyl)-3-((3-methoxyphenyl)amino) pyrrolidin-2-one]"
13,< 0.01 µM,"COc1cccc(NC2CCN(c3cnc(-c4cn[nH]c4)c(OC)n3)C2=O)c1 (stereo not drawn) [Example 134, 1-(6-Methoxy-5-(1H-pyrazol-4-yl)pyrazin-2-yl)-3-((3-methoxyphenyl)amino) pyrrolidin-2-one]"
14,< 0.01 µM,"COc1cccc(N[C@@H]2CCN(c3ccc(-c4cn[nH]c4)cc3)C2=O)c1 [Example 383, (R)-1-(4-(1H-Pyrazol-4-yl)phenyl)-3-((3-methoxyphenyl)amino)pyrrolidin-2-one]"
15,0.1 to 2.2 µM,"COc1ccc(N[C@@H]2CCN(c3ccc(-c4cn[nH]c4)cc3)C2=O)c(OC)c1 [Example 384, (R)-1-(4-(1H-pyrazol-4-yl)phenyl)-3-((2,4-dimethoxyphenyl)amino)pyrrolidin-2-one]"
16,0.1 to 2.2 µM,"COc1cccc(N[C@@H]2CCN(c3ccc(-c4cn[nH]c4)cc3)C2=O)c1OC [Example 385, (R)-1-(4-(1H-pyrazol-4-yl)phenyl)-3-((2,3-dimethoxyphenyl)amino)pyrrolidin-2-one]"
17,0.01 to 0.1 µM,"N#Cc1cccc(N[C@@H]2CCN(c3ccc(-c4cn[nH]c4)cc3)C2=O)c1 [Example 387, (R)-3-((1-(4-(1H-pyrazol-4-yl)phenyl)-2-oxopyrrolidin-3-yl)amino)benzonitrile]"
18,< 0.01 µM,"NC(=O)c1cccc(NC2CCN(c3ccc(-c4cn[nH]c4)cc3)C2=O)c1 (stereo not drawn) [Example 388, 3-((1-(4-(1H-pyrazol-4-yl)phenyl)-2-oxopyrrolidin-3-yl)amino)benzamide]"
19,0.1 to 2.2 µM,"COc1ccc(N[C@@H]2CCN(c3ccc(-c4cn[nH]c4)cc3)C2=O)cc1OC [Example 389, (R)-1-(4-(1H-pyrazol-4-yl)phenyl)-3-((3,4-dimethoxyphenyl)amino)pyrrolidin-2-one]"
20,0.1 to 2.2 µM,"CN(C)c1cccc(N[C@@H]2CCN(c3ccc(-c4cn[nH]c4)cc3)C2=O)c1 [Example 390, (R)-1-(4-(1H-pyrazol-4-yl)phenyl)-3-((3-(dimethylamino)phenyl)amino)pyrrolidin-2-one]"
21,0.01 to 0.1 µM,"CC(=O)Nc1cccc(NC2CCN(c3ccc(-c4cn[nH]c4)cc3)C2=O)c1 (stereo not drawn) [Example 391, N-(3-((1-(4-(1H-pyrazol-4-yl)phenyl)-2-oxopyrrolidin-3-yl)amino)phenyl)acetamide]"
22,0.1 to 2.2 µM,"O=C1[C@H](Nc2ccc3c(c2)CS(=O)(=O)C3)CCN1c1ccc(-c2cn[nH]c2)cc1 [Example 392, (R)-1-(4-(1H-pyrazol-4-yl)phenyl)-3-((2,2-dioxido-1,3-dihydrobenzo[c]thiophen-5-yl)amino)pyrrolidin-2-one]"
23,0.01 to 0.1 µM,"O=C1[C@H](N2CCc3ccccc32)CCN1c1ccc(-c2cn[nH]c2)cc1 [Example 393, (R)-1-(4-(1H-pyrazol-4-yl)phenyl)-3-(indolin-1-yl)pyrrolidin-2-one]"
24,0.01 to 0.1 µM,"O=C1[C@H](N2CCCc3ccccc32)CCN1c1ccc(-c2cn[nH]c2)cc1 [Example 394, (R)-1-(4-(1H-pyrazol-4-yl)phenyl)-3-(3,4-dihydroquinolin-1(2H)-yl)pyrrolidin-2-one]"
25,0.01 to 0.1 µM,"O=C1[C@H](Nc2ccc3c(c2)OCO3)CCN1c1ccc(-c2cn[nH]c2)cc1 [Example 396, (R)-1-(4-(1H-pyrazol-4-yl)phenyl)-3-(benzo[d][1,3]dioxo1-5-ylamino)pyrrolidin-2-one]"
